The values below come from ChEMBL document CHEMBL3244128, “Aromatic esters of nonquaternary carbon-4 piperidinols as analgesics” (J Med Chem, 1978).

The ED50 is the dose that gives a 50% effect, or the effect in half of the subjects.

Series [1] has as its system Mus musculus. In words: Analgesic activity in sc dosed mouse by hot-plate method. Format: functional.
Series [2] concerns Mus musculus. In words: Analgesic activity in mouse at 20 mg/kg, sc by hot-plate method. In kind it is functional, organism-based. On the set-up: dose 20 mg/kg. Background: Thermal pain tests record how soon the animal reacts.
The test system of series [3] is Mus musculus. In words: Analgesic activity in sc dosed mouse by Nilsen method. In kind it is functional.
Series [4] addresses Opioid receptor (Rattus norvegicus) (UniProt P33533+P34975+P33535). In words: Displacement of [3H]dihydromorphine from opiate receptor in rat brain homogenates. Format: tissue-based.
For series [5], the system named is Mus musculus. As to the kind of experiment: Analgesic activity in mouse at 50 mg/kg, sc by hot-plate method. In kind it is functional, organism-based. On the set-up: dose 50 mg/kg.
In series [6] the test system is Mus musculus. In words: Analgesic activity in mouse at 20 mg/kg, sc by Nilsen method. Format: functional, organism-based. On the set-up: dose 20 mg/kg.
Series [7] relates to Mus musculus. In words: Toxicity in mouse at 20 mg/kg, sc. Format: organism-based. On the set-up: dose 20 mg/kg, route subcutaneous. Particulars: in vivo.
Series [8] concerns Rhesus monkey. In words: Toxicity in nonwithdrawn monkey assessed as precipitation of abstinence sign at 8 mg/kg. The conditions noted are these: in vivo. Format: organism-based, Macaca mulatta. On the set-up: dose 8 mg/kg.
Series [9] relates to Mus musculus. In words: Toxicity in mouse at 54.5 mg/kg, sc. Format: organism-based. On the set-up: dose 54.5 mg/kg, route subcutaneous. Particulars: in vivo.
Series [10] concerns Mus musculus. In words: Toxicity in mouse at 1.56 to 25 mg/kg, sc. Format: organism-based. On the set-up: dose 1.56-25 mg/kg, route subcutaneous. The conditions noted are these: in vivo.
Series [11] relates to Rhesus monkey. In words: Toxicity in monkey assessed as morphine-like physical dependence liability at 2 to 4 mg/kg. In kind it is organism-based, Macaca mulatta. On the set-up: dose 2-4 mg/kg. Particulars: in vivo.
Series [12] concerns Rhesus monkey. As to the kind of experiment: Toxicity in nonwithdrawn monkey assessed as nausea at 4 mg/kg. Format: organism-based, Macaca mulatta. On the set-up: dose 4 mg/kg. The conditions noted are these: in vivo.
Series [13] deals with Rhesus monkey. In words: Toxicity in nonwithdrawn monkey assessed as retching, vomiting and preconvulsive appearance at 16 mg/kg up to 5 mins. In kind it is organism-based, Macaca mulatta. Particulars: in vivo. On the set-up: dose 16 mg/kg.
Series [14] relates to Rhesus monkey. As to the kind of experiment: Toxicity in nonwithdrawn monkey assessed as nausea and piloerection at 8 mg/kg. Format: organism-based, Macaca mulatta. On the set-up: dose 8 mg/kg. Particulars: in vivo.
In series [15] the test system is Mus musculus. In words: Toxicity in mouse at 1.25 to 20 mg/kg, sc. On the set-up: dose 1.25-20 mg/kg, route subcutaneous. Particulars: in vivo. Format: organism-based.
Series [16] concerns Rhesus monkey. In words: Toxicity in nonwithdrawn monkey assessed as convulsion at 16 mg/kg up to 5 mins. Format: organism-based, Macaca mulatta. The conditions noted are these: in vivo. On the set-up: dose 16 mg/kg.
The subject of series [17] is Mus musculus. In words: Toxicity in mouse at 5 to 40 mg/kg, sc. In kind it is organism-based. On the set-up: dose 5-40 mg/kg, route subcutaneous. The conditions noted are these: in vivo.

The structures appear in SMILES notation. The source made the active and inactive calls. The rule behind the calls is not given here.

Opioid receptor (Rattus norvegicus), sequence (P33533 whole entry, looked up): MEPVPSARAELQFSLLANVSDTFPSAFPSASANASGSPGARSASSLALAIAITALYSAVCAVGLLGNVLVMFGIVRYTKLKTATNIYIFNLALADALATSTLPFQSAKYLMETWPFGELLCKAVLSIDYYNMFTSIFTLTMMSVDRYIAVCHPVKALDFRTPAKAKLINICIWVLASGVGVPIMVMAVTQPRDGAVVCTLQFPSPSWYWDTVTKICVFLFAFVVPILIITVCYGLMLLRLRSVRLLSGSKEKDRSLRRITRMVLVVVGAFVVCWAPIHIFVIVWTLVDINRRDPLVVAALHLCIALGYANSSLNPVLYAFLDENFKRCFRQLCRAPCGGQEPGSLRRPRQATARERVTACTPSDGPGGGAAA
Opioid receptor (Rattus norvegicus), sequence (P33535 whole entry, looked up): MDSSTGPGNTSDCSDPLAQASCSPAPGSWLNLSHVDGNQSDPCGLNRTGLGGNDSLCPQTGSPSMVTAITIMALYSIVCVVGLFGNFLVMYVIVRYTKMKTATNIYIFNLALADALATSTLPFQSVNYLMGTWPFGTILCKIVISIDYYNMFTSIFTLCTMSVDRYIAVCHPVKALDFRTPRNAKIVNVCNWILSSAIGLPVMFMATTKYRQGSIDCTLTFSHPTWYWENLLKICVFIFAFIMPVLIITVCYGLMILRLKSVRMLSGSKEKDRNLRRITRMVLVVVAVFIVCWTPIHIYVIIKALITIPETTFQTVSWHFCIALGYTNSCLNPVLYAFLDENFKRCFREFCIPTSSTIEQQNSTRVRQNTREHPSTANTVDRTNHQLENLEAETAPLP
Opioid receptor (Rattus norvegicus), sequence (P34975 whole entry, looked up): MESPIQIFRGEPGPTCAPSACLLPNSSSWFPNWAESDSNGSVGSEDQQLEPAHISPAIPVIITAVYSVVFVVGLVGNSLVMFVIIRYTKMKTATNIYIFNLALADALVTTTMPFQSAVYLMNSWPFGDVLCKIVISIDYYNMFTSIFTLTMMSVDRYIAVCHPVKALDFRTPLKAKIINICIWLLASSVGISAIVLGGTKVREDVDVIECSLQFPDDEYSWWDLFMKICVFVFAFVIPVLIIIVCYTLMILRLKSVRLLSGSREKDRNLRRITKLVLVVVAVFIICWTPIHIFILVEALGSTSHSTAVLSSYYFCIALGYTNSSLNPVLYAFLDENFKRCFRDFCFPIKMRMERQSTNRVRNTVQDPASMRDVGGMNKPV

On to `Cc1cccc(C)c1C(=O)OC1CCN(C)CC1`, for which the median effective dose (ED50) in [1] amounted to 15.2 mg/kg.

In series [1], `COc1cc(OC)c(C(=O)OC2CCN(C)CC2)c(OC)c1` registered a 50% effective dose (ED50) of 11.6 mg/kg. Turning to `CCOc1ccccc1C(=O)OC1CCN(C)CC1`, the “Analgesic activity (active/inactive)” value in series [2] was “Active”. As to `CN1CCC(OC(=O)c2cc(I)cc(I)c2I)CC1`, the ED50 entry in [1] is “inactive”. As to `CN1CCC(OC(=O)c2ccc(Cl)c(Cl)c2)CC1`, it took a dose of 27.1 mg/kg to reach the 50% effect level in [1] (ED50). On the same count and under the same terms, as for `COc1cccc(OC)c1C(=O)OC1CCN(C)CC1`, the figure is 73.8 mg/kg.

`COc1cc(C(=O)OC2CCN(C)CC2)cc(OC)c1OC` displayed an ED50 in [1] of 15.4 mg/kg.

`COc1cccc(C(=O)OC2CCN(C)CC2)c1OC`: the ED50 in series [1] was 8.9 mg/kg; in [3] it was 19.6 mg/kg. In the same order, the values of `CN1CC[C@]23c4c5ccc(O)c4O[C@H]2[C@@H](O)C=C[C@H]3[C@H]1C5` [MORPHINE] are 1.2 mg/kg and 0.8 mg/kg. In [1], `CCOC(=O)[C@H]1CN(C)CC[C@@H]1OC(=O)c1ccc(OC)c(OC)c1` (relative stereo) displayed an ED50 of 11.8 mg/kg. On the same count and under the same terms, for `CN1CCC(OC(=O)c2ccc(C(C)(C)C)cc2)CC1` the value was 23.3 mg/kg; for `COc1ccccc1C(=O)OC1CCN(C)CC1`, 10.6 mg/kg.

As for `CN1CCC(OC(=O)/C=C/c2ccccc2)CC1`, the 50% effect level in [1] (ED50) was put at a dose of 16.2 mg/kg. In the case of `CN1CCC(OC(=O)c2cccc(F)c2)CC1`, it took a dose of 15.1 mg/kg to reach the 50% effect level in [1] (ED50). Same read-out and setting: as for `Cc1cccc(C(=O)OC2CCN(C)CC2)c1`, the entry is “inactive”. The compound `COc1ccc(C(=O)O[C@H]2CCN(C)C[C@@H]2C)cc1OC` came in with an ED50 in series [1] of 8.3 mg/kg. Moreover, the K in series [4] is over 100 µM. In the case of `CN1CCC(OC(=O)c2ccccc2F)CC1`, in [1], the median effective dose (ED50) amounted to 10.6 mg/kg. Same read-out and setting: for `COc1cc(C(=O)OC2CCN(C)CC2)ccc1C` the value was 11.9 mg/kg; for `CCC(=O)OC1CCN(C)CC1`, 20.2 mg/kg. Take `Cc1[nH]c(C)c(C(=O)OC2CCN(C)CC2)c1C`: the ED50 in series [1] worked out at 4.9 mg/kg; in series [3] it was 7.1 mg/kg. In turn, `Cc1cc(C)c(C(=O)OC2CCN(C)CC2)cc1C` came in with a median effective dose (ED50) in [1] of 20 mg/kg. Consider `COc1ccc(C(=O)O[C@H]2CCN(C)C[C@H]2C)cc1OC` (relative stereo), for which the K in series [4] is over 100 µM. For the same compound, the “Analgesic activity (active/inactive)” value in [2] is “Active”. For `COc1ccc2c3c1O[C@H]1[C@@H](O)C=C[C@H]4[C@@H](C2)N(C)CC[C@@]341` [CODEINE], the 50% effective dose (ED50) in series [1] came to 7.5 mg/kg; in series [3], 4.5 mg/kg. `COc1ccc(C(=O)OC2CCN(C)CC2)cc1` came in with an ED50 in series [1] of 10.5 mg/kg.

As for `CN1CCC(OC(=O)Cc2ccccc2)CC1`, the ED50 result in [1] is “inactive”.

For the compound `COc1ccc(CCC(=O)OC2CCN(C)CC2)cc1OC`, the ED50 in [1] came out at 30.7 mg/kg; in [3], 32 mg/kg.

`Cc1ccc(C(=O)OC2CCN(C)CC2)cc1F` displayed an ED50 in [1] of 13.9 mg/kg.

For `CC(C(=O)OC1CCN(C)CC1)c1ccccc1` (stereo unspecified), the median effective dose (ED50) in [1] was 25.4 mg/kg. As to `Cc1ccc(C(=O)OC2CCN(C)CC2)cc1C`, the “Analgesic activity (active/inactive)” value in series [2] is “Active”. For the compound `Cc1cc(C)cc(C(=O)OC2CCN(C)CC2)c1`, it took a dose of 24.4 mg/kg to reach the 50% effect level in [1] (ED50). As for `Cc1cc(C)c(C(=O)OC2CCN(C)CC2)c(C)c1`, the ED50 in series [1] was 8.3 mg/kg; in [3], 46 mg/kg. For the compound `CN1CCC(OC(=O)c2ccccc2CCc2ccccc2)CC1`, the ED50 entry in series [5] is “Active”. Regarding `CN1CCC(OC(=O)c2ccc(F)cc2)CC1`, the ED50 in [1] was 11.5 mg/kg.

With `CCOC(=O)[C@@H]1CN(C)CC[C@@H]1OC(=O)c1ccc(OC)c(OC)c1` (relative stereo), the 50% effective dose (ED50) in [1] was determined as 4 mg/kg. Besides, the 50% effective dose (ED50) entry in series [6] is “Active”. The Activity entry in series [7] is “Toxic”.

For the compound `COc1ccc(C(=O)OC2CCN(C)CC2)cc1OC`, the Activity entry in [8] is “Non-toxic”; in series [9], “Non-toxic”; in [10], “Non-toxic”; in series [11], “Non-toxic”; in series [12], “Toxic”; in series [13], “Toxic”. Further, the Activity result is listed as “Toxic” in series [14], “Non-toxic” in series [15], “Toxic” in series [16] and “Non-toxic” in series [17]. For the same compound, the ED50 in series [1] was found to be 3.9 mg/kg; in [3], 13.1 mg/kg.

On to `COc1cc(OC)cc(C(=O)OC2CCN(C)CC2)c1`, for which the 50% effective dose (ED50) in series [1] was 9.3 mg/kg.

As to `CN1CCC(OC(=O)c2cccc(O)c2)CC1`, in series [1], the median effective dose (ED50) was found to be 16.6 mg/kg.

For the compound `CN1CCC(OC(=O)c2ccc3c(c2)OCO3)CC1`, the 50% effect level in series [1] (ED50) was put at a dose of 7.3 mg/kg. In [1], `Cc1ccc(C(=O)OC2CCN(C)CC2)cc1` returned a median effective dose (ED50) of 18.2 mg/kg.

In the case of `CN1CCC(OC(=O)CCCc2ccccc2)CC1`, in series [1], the ED50 result is “inactive”. In series [1], `CN1CCC(OC(=O)C23CC4CC(CC(C4)C2)C3)CC1` came in with a median effective dose (ED50) of 15.9 mg/kg. With `CN1CCC(OC(=O)C2c3ccccc3-c3ccccc32)CC1`, the ED50 result in series [1] is “inactive”. Regarding `CN1CCC(OC(=O)c2ccccc2)CC1`, the ED50 in series [1] is 9.6 mg/kg. The same measure, in the same setting: for `Cc1ccccc1C(=O)OC1CCN(C)CC1` the value was 8.9 mg/kg; for `Cc1cc(C)c(C(=O)OC2CCN(CCc3ccccc3)CC2)c(C)c1`, 37 mg/kg. On to `CN1CCC(OC(=O)c2ccccc2Oc2ccccc2)CC1`, for which the “Analgesic activity (active/inactive)” value in [2] is “Active”. Regarding `Cc1ccc(C)c(C(=O)OC2CCN(C)CC2)c1`, the 50% effect level in series [1] (ED50) was put at a dose of 12.5 mg/kg. The compound `COc1cccc(C(=O)OC2CCN(C)CC2)c1` showed a median effective dose (ED50) in series [1] of 6.1 mg/kg. The Activity result in series [9] and in series [10] was “Non-toxic” in each case.
